# Laboratory results: patent publication US9034921B2, “Diphenylmethane derivatives as SGLT2 inhibitors” (GREEN CROSS CORPORATION, priority 2011, dated 2015)
# Molecular target: human SGLT2 (Homo sapiens (Human), UniProt P31639)
# Assay: Inhibitory effects on human SGLT2 activities (14C-AMG uptake, sodium-dependent glucose transport assay)
# Assay type: cell-based
# Conditions: CHO cells stably expressing hSGLT2, 37° C., 2 h, single determinations
# Procedure, shortened: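 CHO cells stably expressing hSGLT2 were preincubated 10 min at 37 °C in choline (Na+-free) buffer, then exposed 2 h at 37 °C to compound in Na+ uptake buffer with 8 μM 14C-AMG and 1 mM unlabeled AMG. Radioactivity was scintillation counted; IC50 came from nonlinear regression.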
# Sequence of human SGLT2 (P31639 whole entry): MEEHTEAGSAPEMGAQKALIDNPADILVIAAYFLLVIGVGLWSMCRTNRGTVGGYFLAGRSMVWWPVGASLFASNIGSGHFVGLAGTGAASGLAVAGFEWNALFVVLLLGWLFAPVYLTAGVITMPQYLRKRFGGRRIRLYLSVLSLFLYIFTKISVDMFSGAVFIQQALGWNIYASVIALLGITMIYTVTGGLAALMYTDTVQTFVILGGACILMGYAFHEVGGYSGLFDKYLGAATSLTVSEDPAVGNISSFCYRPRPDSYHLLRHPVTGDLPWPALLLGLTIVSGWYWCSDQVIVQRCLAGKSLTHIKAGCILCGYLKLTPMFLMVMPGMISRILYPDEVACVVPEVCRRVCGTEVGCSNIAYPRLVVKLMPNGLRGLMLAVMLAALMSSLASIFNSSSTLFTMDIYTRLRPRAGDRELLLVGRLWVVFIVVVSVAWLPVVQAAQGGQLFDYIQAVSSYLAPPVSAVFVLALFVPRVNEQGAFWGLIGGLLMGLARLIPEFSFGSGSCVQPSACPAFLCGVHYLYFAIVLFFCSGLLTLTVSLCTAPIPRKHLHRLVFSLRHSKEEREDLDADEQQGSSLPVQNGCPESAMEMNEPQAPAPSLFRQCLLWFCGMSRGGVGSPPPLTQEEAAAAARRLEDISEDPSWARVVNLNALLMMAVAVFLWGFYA
row,SMILES,IC50 [nM]
1,"CCOc1ccc(Cc2cc([C@@H]3O[C@H]([S+](C)[O-])[C@@H](O)[C@H](O)[C@H]3O)c3c(c2Cl)CC(C)O3)cc1 (stereo partly drawn) [Example E147, (2S,3R,4R,5S,6R)-2-(4-Chloro-5-(4-ethoxybenzyl)-2-methyl-2,3-dihydrobenzofuran-7-yl)-6-((S)-methylsulfinyl)tetrahydro-2H-pyran-3,4,5-triol]",5.4
2,"CC1Cc2c(Cl)c(Cc3ccc(C(C)C)cc3)cc([C@@H]3O[C@H](CO)[C@@H](O)[C@H](O)[C@H]3O)c2O1 (stereo partly drawn) [Example E149, (2S,3R,4R,5S,6R)-2-(4-Chloro-5-(4-isopropylbenzyl)-2-methyl-2,3-dihydrobenzofuran-7-yl)-6-(hydroxymethyl)tetrahydro-2H-pyran-3,4,5-triol]",1.8
3,"CC1Cc2c([C@@H]3O[C@H](CO)[C@@H](O)[C@H](O)[C@H]3O)cc(Cc3ccc(C(C)C)cc3)c(Cl)c2O1 (stereo partly drawn) [Example E150, (2S,3R,4R,5S,6R)-2-(7-Chloro-6-(4-isopropylbenzyl)-2-methyl-2,3-dihydrobenzofuran-4-yl)-6-(hydroxymethyl)tetrahydro-2H-pyran-3,4,5-triol]",1.44
4,"CCc1ccc(Cc2cc([C@@H]3O[C@H](CO)[C@@H](O)[C@H](O)[C@H]3O)c3c(c2Cl)OCC3C)cc1 (stereo partly drawn) [Example E153, (2S,3R,4R,5S,6R)-2-(7-Chloro-6-(4-ethylbenzyl)-3-methyl-2,3-dihydrobenzofuran-4-yl)-6-(hydroxymethyl)tetrahydro-2H-pyran-3,4,5-triol]",0.721
5,"CSc1ccc(Cc2cc([C@@H]3O[C@H](CO)[C@@H](O)[C@H](O)[C@H]3O)c3c(c2Cl)CCCO3)cc1 [Example E154, (2S,3R,4R,5S,6R)-2-(5-Chloro-6-(4-(methylthio)benzyl)chroman-8-yl)-6-(hydroxymethyl)tetrahydro-2H-pyran-3,4,5-triol]",1.01
6,"OC[C@H]1O[C@@H](c2cc(Cc3ccc(C4CC4)cc3)c(Cl)c3c2CCCO3)[C@H](O)[C@@H](O)[C@@H]1O [Example E155, (2S,3R,4R,5S,6R)-2-(8-Chloro-7-(4-cyclopropylbenzyl)chroman-5-yl)-6-(hydroxymethyl)tetrahydro-2H-pyran-3,4,5-triol]",0.881
7,"COc1ccc(Cc2cc([C@@H]3O[C@H](CO)[C@@H](O)[C@H](O)[C@H]3O)c3c(c2Cl)OCCC3)cc1 [Example E156, (2S,3R,4R,5S,6R)-2-(8-Chloro-7-(4-methoxybenzyl)chroman-5-yl)-6-(hydroxymethyl)tetrahydro-2H-pyran-3,4,5-triol]",2.09
8,"CCOc1ccc(Cc2cc([C@@H]3O[C@H](CO)[C@@H](O)[C@H](O)[C@H]3O)c3c(c2Cl)OCCC3)cc1 [Example E157, (2S,3R,4R,5S,6R)-2-(8-Chloro-7-(4-ethoxybenzyl)chroman-5-yl)-6-(hydroxymethyl)tetrahydro-2H-pyran-3,4,5-triol]",1.28
9,"OC[C@H]1O[C@@H](c2cc(Cc3ccc(C4CC4)cc3)c(Cl)c3c2OCO3)[C@H](O)[C@@H](O)[C@@H]1O [Example E158, (2S,3R,4R,5S,6R)-2-(7-Chloro-6-(4-cyclopropylbenzyl)benzo[d][1,3]dioxol-4-yl)-6-(hydroxymethyl)tetrahydro-2H-pyran-3,4,5-triol]",0.366
10,"CC(C)c1ccc(Cc2cc([C@@H]3O[C@H](CO)[C@@H](O)[C@H](O)[C@H]3O)c3c(c2Cl)OCO3)cc1 [Example E159, (2S,3R,4R,5S,6R)-2-(7-Chloro-6-(4-isopropylbenzyl)benzo[d][1,3]dioxol-4-yl)-6-(hydroxymethyl)tetrahydro-2H-pyran-3,4,5-triol]",0.872
11,"COc1ccc(Cc2cc([C@@H]3O[C@H](CO)[C@@H](O)[C@H](O)[C@H]3O)c3c(c2Cl)OCO3)cc1 [Example E161, (2S,3R,4R,5S,6R)-2-(7-Chloro-6-(4-methoxybenzyl)benzo[d][1,3]dioxol-4-yl)-6-(hydroxymethyl)tetrahydro-2H-pyran-3,4,5-triol]",1.15
12,"CCc1ccc(Cc2cc([C@@H]3O[C@H](CO)[C@@H](O)[C@H](O)[C@H]3O)c3c(c2Cl)OCO3)cc1 [Example E162, (2S,3R,4R,5S,6R)-2-(7-Chloro-6-(4-ethylbenzyl)benzo[d][1,3]dioxol-4-yl)-6-(hydroxymethyl)tetrahydro-2H-pyran-3,4,5-triol]",0.404
13,"OC[C@H]1O[C@@H](c2cc(Cc3ccc(C4CC4)cc3)c(Cl)c3c2OCCO3)[C@H](O)[C@@H](O)[C@@H]1O [Example E163, (2S,3R,4R,5S,6R)-2-(8-Chloro-7-(4-cyclopropylbenzyl)-2,3-dihydrobenzo[b][1,4]dioxin-5-yl)-6-(hydroxymethyl)tetrahydro-2H-pyran-3,4,5-triol]",0.651
14,"CCOc1ccc(Cc2cc([C@@H]3O[C@H](CO)[C@@H](O)[C@H](O)[C@H]3O)c3c(c2Cl)OCCCO3)cc1 [Example E164, (2S,3R,4R,5S,6R)-2-(9-Chloro-8-(4-ethoxybenzyl)-3,4-dihydro-2H-benzo[b][1,4]dioxepin-6-yl)-6-(hydroxymethyl)tetrahydro-2H-pyran-3,4,5-triol]",1.28
15,"CCc1ccc(Cc2cc([C@@H]3O[C@H](CO)[C@@H](O)[C@H](O)[C@H]3O)c3c(c2Cl)OCCCO3)cc1 [Example E165, (2S,3R,4R,5S,6R)-2-(9-Chloro-8-(4-ethylbenzyl)-3,4-dihydro-2H-benzo[b][1,4]dioxepin-6-yl)-6-(hydroxymethyl)tetrahydro-2H-pyran-3,4,5-triol]",1.08
16,"OC[C@H]1O[C@@H](c2cc(Cc3ccccc3)c(Cl)c3c2CCO3)[C@H](O)[C@@H](O)[C@@H]1O [Example E166, (2S,3R,4R,5S,6R)-2-(6-Benzyl-7-chloro-2,3-dihydrobenzofuran-4-yl)-6-(hydroxymethyl)tetrahydro-2H-pyran-3,4,5-triol]",4.22
17,"CC(=O)c1ccc(Cc2cc([C@@H]3O[C@H](CO)[C@@H](O)[C@H](O)[C@H]3O)c3c(c2Cl)OCC3)cc1 [Example E168, 1-(4-((7-Chloro-4-((2S,3R,4R,5S,6R)-3,4,5-trihydroxy-6-(hydroxymethyl)tetrahydro-2H-pyran-2-yl)-2,3-dihydrobenzofuran-6-yl)methyl)phenyl)ethanone]",0.96
18,"CC(O)c1ccc(Cc2cc([C@@H]3O[C@H](CO)[C@@H](O)[C@H](O)[C@H]3O)c3c(c2Cl)OCC3)cc1 (stereo partly drawn) [Example E169, (2S,3R,4R,5S,6R)-2-(7-Chloro-6-(4-(1-hydroxyethyl)benzyl)-2,3-dihydrobenzofuran-4-yl)-6-(hydroxymethyl)tetrahydro-2H-pyran-3,4,5-triol]",2.12
19,"CC(F)c1ccc(Cc2cc([C@@H]3O[C@H](CO)[C@@H](O)[C@H](O)[C@H]3O)c3c(c2Cl)OCC3)cc1 (stereo partly drawn) [Example E170, (2S,3R,4R,5S,6R)-2-(7-Chloro-6-(4-(1-fluoroethyl)benzyl)-2,3-dihydrobenzofuran-4-yl)-6-(hydroxymethyl)tetrahydro-2H-pyran-3,4,5-triol]",1.46
20,"C=Cc1ccc(Cc2cc([C@@H]3O[C@H](CO)[C@@H](O)[C@H](O)[C@H]3O)c3c(c2Cl)OCC3)cc1 [Example E171, (2S,3R,4R,5S,6R)-2-(7-Chloro-6-(4-vinylbenzyl)-2,3-dihydrobenzofuran-4-yl)-6-(hydroxymethyl)tetrahydro-2H-pyran-3,4,5-triol]",0.366
21,"OC[C@H]1O[C@@H](c2cc(Cc3ccc(C4CC4)cc3)c(Cl)c3c2CCO3)[C@H](O)[C@@H](O)[C@@H]1O [Example E172, (2S,3R,4R,5S,6R)-2-(7-Chloro-6-(4-cyclopropylbenzyl)-2,3-dihydrobenzofuran-4-yl)-6-(hydroxymethyl)tetrahydro-2H-pyran-3,4,5-triol]",0.463
22,"OC[C@H]1O[C@@H](c2cc(Cc3ccc(C4CC4)cc3)c(Cl)c3ccoc23)[C@H](O)[C@@H](O)[C@@H]1O [Example E173, (2S,3R,4R,5S,6R)-2-(4-Chloro-5-(4-cyclopropylbenzyl)benzofuran-7-yl)-6-(hydroxymethyl)tetrahydro-2H-pyran-3,4,5-triol]",18.1
23,"CCCc1ccc(Cc2cc([C@@H]3O[C@H](CO)[C@@H](O)[C@H](O)[C@H]3O)c3occc3c2Cl)cc1 [Example E174, (2S,3R,4R,5S,6R)-2-(4-Chloro-5-(4-propylbenzyl)benzofuran-7-yl)-6-(hydroxymethyl)tetrahydro-2H-pyran-3,4,5-triol]",574
24,"CC(C)(O)c1ccc(Cc2cc([C@@H]3O[C@H](CO)[C@@H](O)[C@H](O)[C@H]3O)c3c(c2Cl)OCC3)cc1 [Example E175, (2S,3R,4R,5S,6R)-2-(7-Chloro-6-(4-(2-hydroxypropan-2-yl)benzyl)-2,3-dihydrobenzofuran-4-yl)-6-(hydroxymethyl)tetrahydro-2H-pyran-3,4,5-triol]",2.03
25,"OC[C@H]1O[C@@H](c2cc(Cc3ccc(C(F)F)cc3)c(Cl)c3c2CCO3)[C@H](O)[C@@H](O)[C@@H]1O [Example E176, (2S,3R,4R,5S,6R)-2-(7-Chloro-6-(4-(difluoromethyl)benzyl)-2,3-dihydrobenzofuran-4-yl)-6-(hydroxymethyl)tetrahydro-2H-pyran-3,4,5-triol]",1.14
26,"CC(F)(F)c1ccc(Cc2cc([C@@H]3O[C@H](CO)[C@@H](O)[C@H](O)[C@H]3O)c3c(c2Cl)OCC3)cc1 [Example E177, (2S,3R,4R,5S,6R)-2-(7-Chloro-6-(4-(1,1-difluoroethyl)benzyl)-2,3-dihydrobenzofuran-4-yl)-6-(hydroxymethyl)tetrahydro-2H-pyran-3,4,5-triol]",0.91
27,"Cc1c(Cc2ccc(C3CC3)cc2)cc([C@@H]2O[C@H](CO)[C@@H](O)[C@H](O)[C@H]2O)c2c1OCC2 [Example E178, (2S,3R,4R,5S,6R)-2-(6-(4-Cyclopropylbenzyl)-7-methyl-2,3-dihydrobenzofuran-4-yl)-6-(hydroxymethyl)tetrahydro-2H-pyran-3,4,5-triol]",1.16
28,"C#CC(C)(O)c1ccc(Cc2cc([C@@H]3O[C@H](CO)[C@@H](O)[C@H](O)[C@H]3O)c3c(c2Cl)OCC3)cc1 (stereo partly drawn) [Example E179, (2S,3R,4R,5S,6R)-2-(7-Chloro-6-(4-(2-hydroxybut-3-yn-2-yl)benzyl)-2,3-dihydrobenzofuran-4-yl)-6-(hydroxymethyl)tetrahydro-2H-pyran-3,4,5-triol]",5.2
